Experimental data as given in patent US20170355705A1 (GlaxoSmithKline Intellectual Property (No.2) Limited, priority 2014, published 2017).

Target: T1, SIRT1 (Homo sapiens, UniProt Q96EB6)
T1 sequence (Q96EB6 1-747): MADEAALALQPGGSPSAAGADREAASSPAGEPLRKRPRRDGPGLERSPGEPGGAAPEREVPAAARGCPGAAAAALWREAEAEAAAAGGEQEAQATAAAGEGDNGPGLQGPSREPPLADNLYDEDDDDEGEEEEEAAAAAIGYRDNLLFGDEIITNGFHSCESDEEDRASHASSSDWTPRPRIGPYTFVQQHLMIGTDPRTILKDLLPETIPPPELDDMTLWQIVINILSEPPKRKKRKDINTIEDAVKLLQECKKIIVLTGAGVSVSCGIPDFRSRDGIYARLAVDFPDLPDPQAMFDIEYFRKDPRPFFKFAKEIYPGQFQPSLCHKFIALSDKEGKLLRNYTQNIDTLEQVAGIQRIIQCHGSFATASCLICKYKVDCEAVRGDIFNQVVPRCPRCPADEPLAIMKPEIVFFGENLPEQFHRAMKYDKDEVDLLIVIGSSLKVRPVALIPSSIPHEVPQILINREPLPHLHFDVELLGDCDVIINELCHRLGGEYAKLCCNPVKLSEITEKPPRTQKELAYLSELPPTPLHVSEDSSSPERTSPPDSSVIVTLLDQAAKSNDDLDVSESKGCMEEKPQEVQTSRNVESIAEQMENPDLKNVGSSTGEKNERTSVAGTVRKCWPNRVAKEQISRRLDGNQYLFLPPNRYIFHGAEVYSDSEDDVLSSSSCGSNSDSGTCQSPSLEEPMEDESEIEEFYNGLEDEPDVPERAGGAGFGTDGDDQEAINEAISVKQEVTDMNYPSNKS
Experiment: Trp mass spectrometry assay of SIRT1 activity (EC1.5, percent maximum activation)
Format: biochemical
Conditions: Trp mass spectrometry assay; for TRP Activity (EC1.5): EC1.5 = concentration giving 150% activation of SIRT1; for TRP MAX RESP (percent maximum fold activation): percent maximum activation of SIRT1
Summary of the method: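 Steps: recombinant SIRT1 (N-His, bacterial) and NAD with p53-derived, norleucine-substituted 5TMR peptide; add compound at several concentrations; incubate 25 min; stop with 10% formic acid; freeze; quantify OAADPR by mass spec against control lacking compound.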

Row | Compound | TRP Activity (EC1.5) | TRP MAX RESP (percent maximum fold activation)
1 | O=C(Nc1cccc(OC[C@H](O)CO)n1)N1c2nc(-c3cccc(C(F)(F)F)c3)c(Cl)cc2N2CC[C@H]1C2 [Example 56, (4S)-8-chloro-N-(6-((R)-2,3-dihydroxypropoxy)pyridin-2-yl)-7-(3-(trifluoromethyl)phenyl)-3,4-dihydro-1,4-methanopyrido[2,3-b][1,4]diazepine-5(2H)-carboxamide] | A (EC1.5<1 μM) | A (Fold activation ≧150%)
2 | O=C(Nc1nccc(OC[C@@H](O)CO)n1)N1c2nc(-c3cccc(C(F)(F)F)c3)c(Cl)cc2N2CC[C@H]1C2 [Example 57, (4S)-8-chloro-N-(4-((S)-2,3-dihydroxypropoxy)pyrimidin-2-yl)-7-(3-(trifluoromethyl)phenyl)-3,4-dihydro-1,4-methanopyrido[2,3-b][1,4]diazepine-5(2H)-carboxamide] | A (EC1.5<1 μM) | A (Fold activation ≧150%)
3 | Cl.O=C(Nc1ccnc(OC[C@@H](O)CO)c1)N1c2nc(-c3cccc(C(F)(F)F)c3)c(Cl)cc2N2CC[C@H]1C2 [Example 58, (4S)-8-chloro-N-(2-((S)-2,3-dihydroxypropoxy)pyridin-4-yl)-7-(3-(trifluoromethyl)phenyl)-3,4-dihydro-1,4-methanopyrido[2,3-b][1,4]diazepine-5(2H)-carboxamide, Hydrochloride] | A (EC1.5<1 μM) | A (Fold activation ≧150%)
4 | CC(C)(O)CCOc1cccc(NC(=O)N2c3nc(-c4cccc(C(F)(F)F)c4)c(Cl)cc3N3CC[C@H]2C3)n1 [Example 59, (4S)-8-chloro-N-(6-(3-hydroxy-3-methylbutoxy)pyridin-2-yl)-7-(3-(trifluoromethyl)phenyl)-3,4-dihydro-1,4-methanopyrido[2,3-b][1,4]diazepine-5(2H)-carboxamide] | B (EC1.5 1-25 μM) | A (Fold activation ≧150%)
5 | Cl.O=C(Nc1ccnc(OC[C@H](O)CO)c1)N1c2nc(-c3cccc(C(F)(F)F)c3)c(Cl)cc2N2CC[C@H]1C2 [Example 60, (4S)-8-chloro-N-(2-((R)-2,3-dihydroxypropoxy)pyridin-4-yl)-7-(3-(trifluoromethyl)phenyl)-3,4-dihydro-1,4-methanopyrido[2,3-b][1,4]diazepine-5(2H)-carboxamide, Hydrochloride] | A (EC1.5<1 μM) | A (Fold activation ≧150%)
6 | O=C(Nc1ccnc(OC[C@@H](O)CO)c1)N1c2nc(-c3cccc(C(F)(F)F)c3)c(Cl)cc2N2CC[C@H]1C2 [Example 61, (4S)-8-chloro-N-(2-((S)-2,3-dihydroxypropoxy)pyridin-4-yl)-7-(3-(trifluoromethyl)phenyl)-3,4-dihydro-1,4-methanopyrido[2,3-b][1,4]diazepine-5(2H)-carboxamide] | A (EC1.5<1 μM) | A (Fold activation ≧150%)
7 | Cl.O=C(Nc1cncc(OC[C@H](O)CO)n1)N1c2nc(-c3cccc(C(F)(F)F)c3)c(Cl)cc2N2CC[C@H]1C2 [Example 62, (4S)-8-chloro-N-(6-((R)-2,3-dihydroxypropoxy)pyrazin-2-yl)-7-(3-(trifluoromethyl)phenyl)-3,4-dihydro-1,4-methanopyrido[2,3-b][1,4]diazepine-5(2H)-carboxamide, Hydrochloride] | A (EC1.5<1 μM) | A (Fold activation ≧150%)
8 | O=C(Nc1cc(OC[C@@H](O)CO)ccn1)N1c2nc(-c3cccc(C(F)(F)F)c3)c(Cl)cc2N2CC[C@H]1C2 [Example 63, (4S)-8-chloro-N-(4-((S)-2,3-dihydroxypropoxy)pyridin-2-yl)-7-(3-(trifluoromethyl)phenyl)-3,4-dihydro-1,4-methanopyrido[2,3-b][1,4]diazepine-5(2H)-carboxamide] | B (EC1.5 1-25 μM) | A (Fold activation ≧150%)
9 | Cl.O=C(Nc1cc(OC[C@@H](O)CO)ccn1)N1c2nc(-c3cccc(C(F)(F)F)c3)c(Cl)cc2N2CC[C@H]1C2 [Example 64, (4S)-8-chloro-N-(4-((S)-2,3-dihydroxypropoxy)pyridin-2-yl)-7-(3-(trifluoromethyl)phenyl)-3,4-dihydro-1,4-methanopyrido[2,3-b][1,4]diazepine-5(2H)-carboxamide, Hydrochloride] | B (EC1.5 1-25 μM) | A (Fold activation ≧150%)
10 | O=C(Nc1cncc(OC[C@H](O)CO)n1)N1c2nc(-c3cccc(C(F)(F)F)c3)c(Cl)cc2N2CC[C@H]1C2 [Example 65, (4S)-8-chloro-N-(6-((R)-2,3-dihydroxypropoxy)pyrazin-2-yl)-7-(3-(trifluoromethyl)phenyl)-3,4-dihydro-1,4-methanopyrido[2,3-b][1,4]diazepine-5(2H)-carboxamide] | A (EC1.5<1 μM) | A (Fold activation ≧150%)
11 | O=C(Nc1cnc(OC[C@H](O)CO)nc1)N1c2nc(-c3cccc(C(F)(F)F)c3)c(Cl)cc2N2CC[C@H]1C2 [Example 66, (4S)-8-chloro-N-(2-((R)-2,3-dihydroxypropoxy)pyrimidin-5-yl)-7-(3-(trifluoromethyl)phenyl)-3,4-dihydro-1,4-methanopyrido[2,3-b][1,4]diazepine-5(2H)-carboxamide] | B (EC1.5 1-25 μM) | A (Fold activation ≧150%)
12 | O=C(Nc1cccc(OCCCO)n1)N1c2nc(-c3cccc(C(F)(F)F)c3)c(Cl)cc2N2CC[C@H]1C2 [Example 67, (4S)-8-chloro-N-(6-(3-hydroxypropoxy)pyridin-2-yl)-7-(3-(trifluoromethyl)phenyl)-3,4-dihydro-1,4-methanopyrido[2,3-b][1,4]diazepine-5(2H)-carboxamide] | A (EC1.5<1 μM) | A (Fold activation ≧150%)
13 | Cl.O=C(Nc1cccc(OC[C@@H](O)CO)n1)N1c2nc(-c3cccc(C(F)(F)F)c3)c(Cl)cc2N2CC[C@H]1C2 [Example 68, (4S)-8-chloro-N-(6-((S)-2,3-dihydroxypropoxy)pyridin-2-yl)-7-(3-(trifluoromethyl)phenyl)-3,4-dihydro-1,4-methanopyrido[2,3-b][1,4]diazepine-5(2H)-carboxamide Hydrochloride] | A (EC1.5<1 μM) | A (Fold activation ≧150%)
14 | O=C(Nc1cncc(OCCO)n1)N1c2nc(-c3cccc(C(F)(F)F)c3)c(Cl)cc2N2CC[C@H]1C2 [Example 69, (4S)-8-chloro-N-(6-(2-hydroxyethoxy)pyrazin-2-yl)-7-(3-(trifluoromethyl)phenyl)-3,4-dihydro-1,4-methanopyrido[2,3-b][1,4]diazepine-5(2H)-carboxamide] | A (EC1.5<1 μM) | A (Fold activation ≧150%)
15 | O=C(Nc1ccnc(OCCO)n1)N1c2nc(-c3cccc(C(F)(F)F)c3)c(Cl)cc2N2CC[C@H]1C2 [Example 70, (4S)-8-chloro-N-(2-(2-hydroxyethoxy)pyrimidin-4-yl)-7-(3-(trifluoromethyl)phenyl)-3,4-dihydro-1,4-methanopyrido[2,3-b][1,4]diazepine-5(2H)-carboxamide] | A (EC1.5<1 μM) | A (Fold activation ≧150%)
16 | O=C(Nc1cccc(OC[C@@H](O)CO)n1)N1c2nc(-c3cccc(C(F)(F)F)c3)c(Cl)cc2N2CC[C@H]1C2 [Example 71, (4S)-8-chloro-N-(6-((S)-2,3-dihydroxypropoxy)pyridin-2-yl)-7-(3-(trifluoromethyl)phenyl)-3,4-dihydro-1,4-methanopyrido[2,3-b][1,4]diazepine-5(2H)-carboxamide] | A (EC1.5<1 μM) | A (Fold activation ≧150%)
17 | O=C(Nc1ccc(OC[C@@H](O)CO)nc1)N1c2nc(-c3cccc(C(F)(F)F)c3)c(Cl)cc2N2CC[C@H]1C2 [Example 72, (4S)-8-chloro-N-(6-((S)-2,3-dihydroxypropoxy)pyridin-3-yl)-7-(3-(trifluoromethyl)phenyl)-3,4-dihydro-1,4-methanopyrido[2,3-b][1,4]diazepine-5(2H)-carboxamide] | A (EC1.5<1 μM) | A (Fold activation ≧150%)
